Earlier results as cited in US6858612B1, “Use of tetrahydropteridine derivatives as no synthase inhibitors” (Vasopharm Buitech GmbH, priority 1994, dated 2005).

Tested on: NO synthases

| Compound | effect on NO synthase activity (Hevel and Marletta, Giovanelli et al. only at relatively high concentrations) | effect on NO production (literature reports (Kwon et al., Giovanelli et al., Overfeld et al.), concentration-dependent) |
| --- | --- | --- |
| CC1CNc2nc(N)[nH]c(=O)c2N1 (centres unmarked) [6-methyl-5,6,7,8-tetrahydropterin] | increase in NO synthase activity |  |
| C[C@H](O)[C@H](O)C1=Nc2c(nc(N)[nH]c2=O)NC1 [7,8-dihydrobiopterin] |  | Stimulation of NO production |
